Measurements from US5216147A, “Radioactive benzodiazepine derivatives” (Sumitomo Chemical Company, Limited, priority 1987, dated 1993).

Target: Benzodiazepine Receptors
Assay: Benzodiazepine receptor binding affinity: displacement of 3H-diazepam from rat synaptosomal membranes
Details: for Ki: 3H-diazepam; for Ki / IC50: 4° C., 15 min, triplicate; for IC50: inhibition of specific 3H-diazepam binding; for Relative Potency: relative to Diazepam = 100, 3H-diazepam
Procedure: 2'-Iododiazepam, Diazepam and Fludiazepam were screened as for benzodiazepine binding affinity according to the method reported by Nakatsuka (Life Sciences 36 (2) 113-119, 1985). An aliquot of synaptosomal membrane preparations was incubated at 4° C. for 15 min. with each of the unlabeled competing drugs (2'-Iodoiazepam, Diazepam and Fludiazepam) in different concentration and 3H-diazepam. The incubation was terminated by adding ice-cold Tris-HCl buffer followed by a rapid filtration through a Whatman GF/B filter. The bound 3H-diazepam retained on the filter was extracted with ACS-II (Amersham) and counted. All incubations were conducted in triplicate. Nonspecific binding was determined in tubes containing diazepam. Specific binding was calculated by subtracting the nonspecific binding from the total binding. IC50 values, the concentrations of the tested compounds that cause 50% inhibition of the specific 3H-diazepam were determined from the displacement curves obtained.

Row | SMILES | Ki | IC50 | Relative Potency
1 | CN1C(=O)CN=C(c2ccccc2I)c2cc(Cl)ccc21 [2'-Iododiazepam, 7-chloro-1-methyl-5-(2-iodophenyl)-3H-1,4-benzodiazepin-2-one] | 0.21 nM | 0.25 nM | 3600
2 | CN1C(=O)CN=C(c2ccccc2)c2cc(Cl)ccc21 [Diazepam] | 7.7 nM | 9 nM | 100
3 | CN1C(=O)CN=C(c2ccccc2F)c2cc(Cl)ccc21 [Fludiazepam] | 1 nM | 1.2 nM | 770
